Values of other authors as cited in patent publication US20250177316A1, “Delayed-Release Granulates of Melatonin, Combinations Comprising Melatonin, Pharmaceutical Compositions and Dietary Supplements Containing Them, and Their Use in the Treatment of Insomnia and for the Reduction of the Time Required to Fall Asleep” (S.I.I.T. S.R.L. - SERVIZIO INTERNAZIONALE IMBALLAGGI …, priority 2022, published 2025).

| Compound | pH of 5% solution in water |
| --- | --- |
| CC(O)C(=O)[O-].CC(O)C(=O)[O-].[Ca+2] (centres unmarked) [calcium lactate] | 6-8 |
| CC(O)C(=O)[O-].CC(O)C(=O)[O-].[Mg+2] (centres unmarked) [magnesium lactate] | 6.5-8.5 |
